Columns and labels:
[1] = test system: PKCδ; test: Immunocytochemistry of PKCδ cellular localization in 4T1 cells; assay type: cell-based, mouse; conditions: 4T1, 5 hrs
Method: Immunocytocheimstry: Cells were cultured on glass cover slips coated with poly-L-ornithine (Sigma, Saint Louis, Mo.). At 5 hrs after treatment with drugs, the cells were fixed with 10% formaldehyde in diluted in PBS (−) and washed with PBS (−) three times. After permeabilized by 0.2% Tryton X-100 and 1% goat serum diluted in PBS (−), the cells were blocked by PBS (−) containing 5% goat serum. The cells were then incubated with primary antibodies diluted in PBS (−) containing 0.5% bovine serum albumin (BSA), and with secondary antibodies, which is either anti-IgG conjugated with fluorescein (Vector Laboratories. Burlingame, Calif.), diluted in PBS (−) containing 0.5% BSA. The cells were observed through Zeiss fluorescent microscope (Carl Zeiss, Thornwood, N.Y.).

[2] = daily (1 mg/day) IV injection, nude mice carrying human tumor xenografts; cited from earlier work
[3] = test system: tumors; conditions: intravenous infusion, cited from earlier work
[4] = test system: LNCaP human prostate cancer cells; assay type: cell-based; conditions: 28 hrs, M4N 80 μM, Ro 5 μM, Ly 20 μM
Method: (§1) Cell Culture Either cell line 4T1 or 67NR was a gift from Dr. Miller (20). The cells were cultured in RPMI1640 medium supplemented with glucose (14 mM), pyruvate (1 mM), penicillin (100 units/ml), streptomycin (100 μg/ml), and fetal bovine serum (10%), buffered with 25 mM HEPES (pH 7.4). LNCaP human prostate cancer cell line was purchased from American Type Culture Collection (Manassas, Va.). The cell line was cultured in RPMI1640 medium supplemented with glucose (14 mM), pyruvate (1 mM), penicillin (100 units/ml), streptomycin (100 μg/ml), and fetal bovine serum (10%). Drugs were dissolved in dimethyl sulfoxide (DMSO) at a suitable concentration so that the final concentration of DMSO in the medium was less than 0.1%.
(§2) Apoptosis assay: Simple TLTNEL assay was conducted by using TUNEL apoptosis detection kit (Upstate, Temecula, Calif.) with some modification. For the evaluation of the effect of PKCδ wild type and dominant negative vectors on TUNEL-positive cell death, we first transfected 4T1 or 67NR cells with these vectors by effectene (Qiagen, Valencia, Calif.). Wild type PKCδ vector is constructed from wild type PKCδ gene and pEGFP (Promega, Madison, Wis.). Dominant negative PKCδ vector is constructed from PKCδ gene mutated at a 376th amino acid residue (threonine) and pEGFP (Promega, Madison, Wis.) This threonine residue is located in ATP-binding domain of protein kinase Cδ, and therefore essential for any kinase reaction of the protein so that this mutant protein supposedly function as dominant negative. As a control we used pEGFP-N3 vector was used. These vectors contain green fluorescent protein (GFP) gene to be used as a transfection marker. The vectors are kind gifts from Dr. Yuspa (National Institutes of Health, Bethesda, Md.) (88). Twenty four hours after transfection, the cells were treated with M4N, Rottlerin, or Ly294002. Then 24 hrs after this treatment with these reagents, the cells were fixed with 10% formaldehyde in phosphate buffered saline without calcium and magnesium (PBS (−)). The cells were then incubated with rabbit anti-GFP antibody (MBL International, Woburn, Mass.) followed by treatment with anti-rabbit IgG antibody conjugated with fluorescein (Promega, Madison, Wis.). TUNEL staining was conducted by using TUNEL apoptosis detection kit (Upstate, Temecula, Calif.) except for using Streptavidin-Alexa Fluor 568 (Molecular Probes, Eugene, Oreg.) instead of Avidine-Rhodamine contained in the kit. Cell death was evaluated by dividing the number of TUNEL-positive cells among the cells positive with anti-GFP staining by the number of these GFP-positive cells.

[5] = test system: LNCaP tumors; test: Nude mice orthotropically implanted with LNCaP tumors, about eight times tumor volume, treatment from day 3; assay type: in vivo, mouse
Method: M4N and Rottlerin were dissolved into a solvent, CPE (25/30) solvent system supplied by Erimos Pharmaceutical, L.L.C. (Raleigh, N.C.) and injected into mice either intravenously or intraperitoneally, T-cell deficient male nude mice (nu/nu) were obtained from Charles River Laboratories (Wilmington, Mass.). M4N and Ly294002 were dissolved into a solvent, CPE (25/30) solvent system supplied by Erimos Pharmaceutical, L.L.C. (Raleigh, N.C.) and injected into mice intravenously.
Surgical orthotropic implantation of LNCaP tumors: LNCaP cells were grown as described above. Cells growing subconfluently were collected and resuspended into the tissue culture medium without fetal bovine serum and antibiotics. After counting the number of the cells, the cell concentration was adjusted using the same medium. After 20 μl of the medium containing a selected number of cancer cells (about 5×10^7 cells) had been mixed together with the same volume of Matrigel (BD science, Bedford, Mass.), the combined solution was injected into the skin of nude mice. […] The tumor tissue extracted from the skin was excised into pieces of about 2 mm diameter. After nude mice were anesthetized by 2,2,2-Tribromoethanol (Aldrich Chemical Co. Inc., Milwaukee, Wis.), a small incision was made at the abdomen of each mouse and a tumor tissue piece was implanted in the neighbor of the prostate of each mouse. Eight days after the operation, the injection of drugs was initiated, and the drugs were injected intravenously every day for the indicated periods
As in the previous experiment (FIGS. 9 to 13), in this study we administered M4N, Ly, Ro, Etoposide, or Rapamycin to mice intravenously using CPE (25/30) solvent system (87). […] However, in this experiment we implanted about eight times the volume of tumors as in the previous experiments to detect the difference of efficacy of various combination treatments much faster. We started to treat the mice with combination treatments three days after the implantation instead of eight days, considering that the tumor volume is already large at the time of implantation in this experiment. This allows less time for possible metastasis to the transplanted tumors in this experiment than in the previous one.

[6] = test system: PKCδ; test: Western blotting of total PKCδ and phosphor-PKCδ (Thr505) in 67NR cells; assay type: cell-based, mouse; conditions: 5 hrs, M4N 80 μM, Ro 5 μM, Ly 20 μM, Des 150 μM
Method: (§3) The sample volumes were adjusted by the total protein amount. Protein assay was performed by Bio-Rad Protein Assay (Bio-Rad Laboratories, Inc. Hercules, Calif.). The samples were resolved by the standard SDS-polyacrylamide gel electrophoresis and transferred to nitrocellulose membrane (Amersham Biosciences, Bjorkgatan, Sweden). The membranes were blocked with skim milk, and incubated with primary antibodies at 4° C. overnight and then with secondary antibody conjugated with horse radish peroxidase at room temperature for 2 hrs. The signals were detected by western blot chemiluminescence reagent plus (New England Nuclear Life Science Products, Boston, Mass.).

[7] = test system: HIF; test: Western blotting of HIF in 4T1 cells; assay type: cell-based, mouse; conditions: 4T1, M4N 80 μM
Method: Western blotting: After cells had been grown in […] flasks and treated with reagents, the cells were washed with PBS (−) three times and suspended in RIP A buffer (150 mM NaCl, 50 mM Tris-HCl (pH 8,0), 0.1% SDS, 1% NP40, and 0.5% deoxycholate) supplemented with protease inhibitor cocktail (Calbiochem, San Diego, Calif.). The sample volumes were adjusted by the total protein amount. Protein assay was performed by Bio-Rad Protein Assay (Bio-Rad Laboratories, Inc. Hercules, Calif.). The samples were resolved by the standard SDS-polyacrylamide gel electrophoresis and transferred to nitrocellulose membrane (Amersham Biosciences, Bjorkgatan, Sweden). The membranes were blocked with skim milk, and incubated with primary antibodies at 4° C. overnight and then with secondary antibody conjugated with horse radish peroxidase at room temperature for 2 hrs. The signals were detected by western blot chemiluminescence reagent plus (New England Nuclear Life Science Products, Boston, Mass.).

[8] = test system: 4T1 cells; test: TUNEL apoptosis assay in 4T1 cells; assay type: cell-based, mouse; conditions: 4T1, 48 hr after treatment, M4N 80 μM
Method: as §1, §2

[9] = test system: PKCδ; test: Western blotting of total PKCδ and phosphor-PKCδ (Thr505) in 4T1 cells; assay type: cell-based, mouse; conditions: 4T1, 5 hrs; M4N 80 μM, Ro 5 μM, Ly 20 μM, Des 150 μM
Method: as §3

[10] = test system: 4T1 cells; test: MTT cell growth assay in 4T1 cells; assay type: cell-based, mouse
Method: as §1
MTT assay: Cells were incubated in PBS (−) supplemented with 5% fetal calf serum and 0.5 mg/ml MTT, 3-(4,5-Dimethylthiazol-2-yl)-2,5-diphenyltetrazolium bromide (Sigma, Saint Louis, Mo.) for 2 hrs. After the incubation, the cells were dissolved in dimethyl sulfoxide and the color of the solutions was measured by a spectrophotometer at wavelengths of 540 and 690 nm. The values correlated with viable cell numbers were obtained by subtracting the optical density at 690 nm from that, at 540 nm.

## COc1ccc(C[C@@H](C)[C@@H](C)Cc2ccc(OC)c(OC)c2)cc1OC [M4N, tetra-O-methyl nordihydroguaiaretic acid]
[1]
  cellular distribution / nuclear staining of total PKCδ: did not change much
[1]; with Desferoxamine 150 μM
  nuclear staining for phosphor-PKCδ (Thr505) in the presence of Des: markedly augmented nuclear staining
[1]; without Desferoxamine co-treatment
  nuclear staining for phosphor-PKCδ (Thr505): augmented staining
[2]
  M4N level accumulated in blood and tumors: above 1 mM
[3]; Phase I/II
  disease stabilization in patients: long term stabilization of disease in some patients
[3]
  tumor shrinkage in patients: tumor shrinkage has rarely been seen
[4]
  TUNEL-positive cell death: very small
[5]; combination groups at 80 days after tumor implantation
  mice with lung metastasis lesions: 2 out of 4
[5]; mouse, in vivo
  time after implantation by which all mice died: ≤ 33 days
[6]
  amount of phosphorylated PKCδ at Thr505: induced phosphorylation
[7]
  effect on Desferoxamine-mediated HIF induction: slightly suppressed
[8]
  TUNEL-positive cell death: did not detect many TUNEL-positive cells
[9]
  amount of phosphorylated PKCδ at Thr505: induced phosphorylation
[10]; 4T1, 20 μM
  cell growth (MTT) at 20 μM: significant effect of the drug to reduce cell growth
[10]; 4T1, MTT
  concentration at which cell growth stopped: 80 µM
  time after treatment at which effect on cell growth was evident: 42 h
[10]; 4T1, different concentrations of M4N
  cell growth (MTT): reduced the cell growth of 4T1 cells depending on the concentration of the drug

— USRE46907E1, “Suppression of cancer growth and metastasis using nordihydroguaiaretic acid derivatives with metabolic modulators” (THE JOHNS HOPKINS UNIVERSITY, priority 2008, dated 2018)
